Data as given in ChEMBL document CHEMBL5247642, “Structural Optimization of Fibroblast Growth Factor Receptor Inhibitors for Treating Solid Tumors” (J Med Chem, 2023).
Activity calls are given as the source filed them. The rule behind the calls is not given here.

Columns and labels:
[1] = biological target: Fibroblast growth factor receptor 2 (Homo sapiens, UniProt P21802); assay: Inhibition of FGFR2 (unknown origin) using Poly (Glu,Tyr) 4:1 as substrate incubated for 60 mins in presence of ATP by ELISA analysis
[2] = biological target: Fibroblast growth factor receptor 3 (Homo sapiens, UniProt P22607); assay: Inhibition of FGFR3 (unknown origin) using Poly (Glu,Tyr) 4:1 as substrate incubated for 60 mins in presence of ATP by ELISA analysis
SNU-16 [3] = assay: Antiproliferative activity against human SNU-16 cells assessed as reduction in cell viability measured for 72 hrs; type: functional, cell-based; details: SNU-16, 72 h
[4] = Stability in rat whole blood assessed as parent compound remaining measured after 2 hrs by LC-MS/MS analysis; type: ADME, tissue-based; details: read-out: Stability
[5] = biological target: T1, Fibroblast growth factor receptor (Homo sapiens) (UniProt P22607+P11362+P22455+P21802); assay: Inhibition of FGFR phosphorylation in human SNU-16 cells at 5 nM measured after 12 hrs; type: cell-based
[6] = biological target: T1, Fibroblast growth factor receptor (Homo sapiens); assay: Inhibition of FGFR phosphorylation in human SNU-16 cells at 5 nM measured after 24 hrs; type: cell-based
[7] = biological target: Vascular endothelial growth factor receptor 2 (Homo sapiens) (UniProt P35968); assay: Inhibition of VEGFR2 (unknown origin) at 1 uM using Poly (Glu,Tyr) 4:1 as substrate incubated for 60 mins in presence of ATP by ELISA analysis relative to control
[8] = biological target: Fibroblast growth factor receptor 1 (Homo sapiens, UniProt P11362, V561M); assay: Inhibition of human recombinant FGFR1 V561M mutant (456 to 765 residues) using GGEEEEYFELVKK as substrate incubated for 40 mins presence of [gamma-33P]-ATP by radiometric based scintillation counter assay
[9] = biological target: Fibroblast growth factor receptor 2 (Homo sapiens, UniProt P21802, N549H); assay: Inhibition of human recombinant FGFR2 N549H mutant (456 to 770 residues) using GGEEEEYFELVKK as substrate incubated for 40 mins presence of [gamma-33P]-ATP by radiometric based scintillation counter assay
[10] = biological target: Fibroblast growth factor receptor 2 (Homo sapiens, UniProt P21802, V564F); assay: Inhibition of FGFR2 V564F mutant (unknown origin)
NCI-H1581 [11] = assay: Antiproliferative activity against human NCI-H1581 cells expressing FGFR1 assessed as reduction in cell viability measured after 72 hrs; type: functional, cell-based; details: NCI-H1581, 72 h
NCI-H716 [12] = assay: Antiproliferative activity against human NCI-H716 cells expressing FGFR2 assessed as reduction in cell viability measured after 72 hrs; type: functional, cell-based; details: NCI-H716, 72 h
OPM-2 = assay: Antiproliferative activity against human OPM-2 cells expressing FGFR3 assessed as reduction in cell viability measured after 72 hrs; type: functional, cell-based; details: OPM-2, 72 h
NCI-H2228 = assay: Antiproliferative activity against human NCI-H2228 cells assessed as reduction in cell viability measured after 72 hrs; type: functional, cell-based; details: NCI-H2228, 72 h
NCI-H1792 = assay: Antiproliferative activity against human NCI-H1792 cells assessed as reduction in cell viability measured after 72 hrs; type: functional, cell-based; details: NCI-H1792, 72 h
NCI-H727 = assay: Antiproliferative activity against human NCI-H727 cells assessed as reduction in cell viability measured after 72 hrs; type: functional, cell-based; details: NCI-H727, 72 h
NCI-H526 = assay: Antiproliferative activity against human NCI-H526 cells assessed as reduction in cell viability measured after 72 hrs; type: functional, cell-based; details: NCI-H526, 72 h
PANC-1 = assay: Antiproliferative activity against human PANC-1 cells assessed as reduction in cell viability measured after 72 hrs; type: functional, cell-based; details: PANC-1, 72 h
Hs746T = assay: Antiproliferative activity against human Hs746T cells assessed as reduction in cell viability measured after 72 hrs; type: functional, cell-based
BXPC-3 = assay: Antiproliferative activity against human BXPC-3 cells assessed as reduction in cell viability measured after 72 hrs; type: functional, cell-based; details: BXPC-3, 72 h
HCC78 = assay: Antiproliferative activity against human HCC78 cells assessed as reduction in cell viability measured after 72 hrs; type: functional, cell-based; details: HCC78, 72 h
EBC-1 = assay: Antiproliferative activity against human EBC-1 cells assessed as reduction in cell viability measured after 72 hrs; type: functional, cell-based; details: EBC-1, 72 h
A549 = assay: Antiproliferative activity against human A549 cells assessed as reduction in cell viability measured after 72 hrs; type: functional, cell-based; details: A549, 72 h
NCI-H441 = assay: Antiproliferative activity against human NCI-H441 cells assessed as reduction in cell viability measured after 72 hrs; type: functional, cell-based; details: NCI-H441, 72 h
NCI-H1299 = assay: Antiproliferative activity against human NCI-H1299 cells assessed as reduction in cell viability measured after 72 hrs; type: functional, cell-based; details: NCI-H1299, 72 h
BaF3 = assay: Antiproliferative activity against mouse BaF3 cells assessed as reduction in cell viability measured after 72 hrs; type: functional, cell-based; details: BaF3, 72 h
[13] = AUC (0 to t) in CD-1 mouse at 1 mg/kg, iv measured after 24 hrs by LC-MS/MS analysis; type: ADME, organism-based; design: time 24 hrs, dose 1 mg/kg, route iv; details: in vivo
[14] = AUC (0 to infinity) in CD-1 mouse at 3 mg/kg, po measured after 24 hrs by LC-MS/MS analysis; type: ADME, organism-based; design: time 24 hrs, dose 3 mg/kg, route po; details: in vivo
[15] = Half life in CD-1 mouse at 3 mg/kg, po measured after 24 hrs by LC-MS/MS analysis; type: ADME, organism-based; details: in vivo
[16] = biological target: Fibroblast growth factor receptor 4 (Homo sapiens, UniProt P22455); assay: Inhibition of FGFR4 (unknown origin)
NCI-H1581 [17] = assay: Antitumor activity against human NCI-H1581 cells xenografted in po dosed nude mouse assessed as tumor growth inhibition administered once daily for 11 days by microcaliper analysis; type: functional, organism-based; details: dose 200-400 mg/kg, time 11.0 day
NCI-H1581 [18] = assay: Antitumor activity against human NCI-H1581 cells xenografted in nude mouse assessed as tumor growth inhibition at 400 mg/kg, po administered once daily for 11 days by microcaliper analysis; type: functional, organism-based; details: time 11.0 day
NCI-H716 [19] = assay: Antitumor activity against human NCI-H716 cells xenografted in nude mouse assessed as tumor growth inhibition at 400 mg/kg, po administered once daily for 18 days by microcaliper analysis; type: functional, organism-based; details: time 18.0 day
SNU-16 [20] = assay: Antitumor activity against human SNU-16 cells xenografted in nude mouse assessed as tumor growth inhibition at 200 mg/kg, po administered once daily for 21 days by microcaliper analysis relative to control; type: functional; design: scale not given: the % may be the effect or the level left; details: time 21 day
[21] = Toxicity in nude mouse xenografted with human SNU-16 cells assessed as body weight loss at 200 to 400 mg/kg, po administered once daily for 21 days; type: organism-based; details: in vivo, 504 h, dose 200-400 mg/kg, time 21 day
[22] = biological target: T2, Fibroblast growth factor receptor 1 (Homo sapiens, UniProt P11362); details: dose 10.0 nM, time 60.0 min
[23] = biological target: T2, Fibroblast growth factor receptor 1; details: dose 1.0 nM, time 60.0 min

T1 sequence (P11362 whole entry, looked up): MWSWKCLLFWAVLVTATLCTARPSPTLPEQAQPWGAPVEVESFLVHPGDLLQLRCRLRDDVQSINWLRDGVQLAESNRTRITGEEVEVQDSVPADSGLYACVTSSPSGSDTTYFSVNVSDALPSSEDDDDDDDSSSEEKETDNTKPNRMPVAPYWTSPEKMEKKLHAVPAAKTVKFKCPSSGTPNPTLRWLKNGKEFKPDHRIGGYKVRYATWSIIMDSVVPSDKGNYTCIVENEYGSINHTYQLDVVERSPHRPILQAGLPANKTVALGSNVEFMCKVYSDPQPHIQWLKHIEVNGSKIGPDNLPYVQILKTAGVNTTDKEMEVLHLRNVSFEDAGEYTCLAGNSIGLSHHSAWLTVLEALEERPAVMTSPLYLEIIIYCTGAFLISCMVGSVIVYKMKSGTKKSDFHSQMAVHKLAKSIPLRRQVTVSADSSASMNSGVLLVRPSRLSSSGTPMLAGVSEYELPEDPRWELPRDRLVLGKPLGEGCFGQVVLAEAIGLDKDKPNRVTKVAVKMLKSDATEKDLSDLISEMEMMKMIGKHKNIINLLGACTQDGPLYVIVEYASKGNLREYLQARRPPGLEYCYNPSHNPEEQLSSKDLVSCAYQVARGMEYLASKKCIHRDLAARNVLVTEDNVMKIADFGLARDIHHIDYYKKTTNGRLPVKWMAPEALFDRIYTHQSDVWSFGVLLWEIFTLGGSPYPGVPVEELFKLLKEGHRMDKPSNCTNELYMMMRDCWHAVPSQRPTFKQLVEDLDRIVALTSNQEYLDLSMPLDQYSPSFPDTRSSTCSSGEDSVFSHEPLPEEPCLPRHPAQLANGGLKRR
T1 sequence (P21802 whole entry, looked up): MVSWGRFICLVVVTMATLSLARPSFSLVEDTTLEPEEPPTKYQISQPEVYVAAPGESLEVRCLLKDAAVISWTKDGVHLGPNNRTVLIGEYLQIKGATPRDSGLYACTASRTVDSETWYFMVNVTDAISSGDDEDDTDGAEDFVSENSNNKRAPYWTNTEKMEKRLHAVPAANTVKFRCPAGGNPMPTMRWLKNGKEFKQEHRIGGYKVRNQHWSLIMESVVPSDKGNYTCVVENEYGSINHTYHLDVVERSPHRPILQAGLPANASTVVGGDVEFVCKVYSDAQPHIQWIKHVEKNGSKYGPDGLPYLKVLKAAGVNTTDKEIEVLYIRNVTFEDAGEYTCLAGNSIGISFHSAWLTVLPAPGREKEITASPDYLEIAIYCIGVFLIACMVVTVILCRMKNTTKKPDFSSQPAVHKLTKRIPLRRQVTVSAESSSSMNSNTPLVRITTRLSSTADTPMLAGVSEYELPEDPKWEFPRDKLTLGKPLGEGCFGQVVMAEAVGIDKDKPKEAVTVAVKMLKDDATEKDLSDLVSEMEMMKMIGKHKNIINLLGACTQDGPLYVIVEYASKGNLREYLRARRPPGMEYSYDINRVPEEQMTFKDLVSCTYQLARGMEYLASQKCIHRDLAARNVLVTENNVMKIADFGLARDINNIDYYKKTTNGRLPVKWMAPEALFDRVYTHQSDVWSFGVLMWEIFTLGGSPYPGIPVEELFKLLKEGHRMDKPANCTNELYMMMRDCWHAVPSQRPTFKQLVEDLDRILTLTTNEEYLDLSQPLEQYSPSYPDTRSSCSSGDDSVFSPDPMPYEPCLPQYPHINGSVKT
T1 sequence (P22455 whole entry, looked up): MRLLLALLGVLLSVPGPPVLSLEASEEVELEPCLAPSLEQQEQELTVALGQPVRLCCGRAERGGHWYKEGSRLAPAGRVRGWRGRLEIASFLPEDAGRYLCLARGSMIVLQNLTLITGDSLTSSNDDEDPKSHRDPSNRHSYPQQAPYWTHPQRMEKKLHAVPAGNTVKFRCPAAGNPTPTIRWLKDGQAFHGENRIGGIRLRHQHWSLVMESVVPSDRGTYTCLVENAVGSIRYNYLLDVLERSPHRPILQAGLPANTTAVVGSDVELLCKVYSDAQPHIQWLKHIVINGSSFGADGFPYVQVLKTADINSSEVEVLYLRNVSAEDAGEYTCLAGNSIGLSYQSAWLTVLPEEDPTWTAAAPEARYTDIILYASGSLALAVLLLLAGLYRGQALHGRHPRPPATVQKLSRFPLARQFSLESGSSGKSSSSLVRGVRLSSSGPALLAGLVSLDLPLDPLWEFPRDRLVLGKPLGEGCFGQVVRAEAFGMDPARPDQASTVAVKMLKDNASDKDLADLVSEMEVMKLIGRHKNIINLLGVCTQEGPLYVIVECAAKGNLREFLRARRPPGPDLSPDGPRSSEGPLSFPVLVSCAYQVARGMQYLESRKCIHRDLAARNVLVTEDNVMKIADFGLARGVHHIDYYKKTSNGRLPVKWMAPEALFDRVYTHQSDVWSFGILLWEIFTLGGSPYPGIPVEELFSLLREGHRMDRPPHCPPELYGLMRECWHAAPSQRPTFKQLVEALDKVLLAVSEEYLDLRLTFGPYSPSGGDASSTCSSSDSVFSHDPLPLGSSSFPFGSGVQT
T1 sequence (P22607 whole entry, looked up): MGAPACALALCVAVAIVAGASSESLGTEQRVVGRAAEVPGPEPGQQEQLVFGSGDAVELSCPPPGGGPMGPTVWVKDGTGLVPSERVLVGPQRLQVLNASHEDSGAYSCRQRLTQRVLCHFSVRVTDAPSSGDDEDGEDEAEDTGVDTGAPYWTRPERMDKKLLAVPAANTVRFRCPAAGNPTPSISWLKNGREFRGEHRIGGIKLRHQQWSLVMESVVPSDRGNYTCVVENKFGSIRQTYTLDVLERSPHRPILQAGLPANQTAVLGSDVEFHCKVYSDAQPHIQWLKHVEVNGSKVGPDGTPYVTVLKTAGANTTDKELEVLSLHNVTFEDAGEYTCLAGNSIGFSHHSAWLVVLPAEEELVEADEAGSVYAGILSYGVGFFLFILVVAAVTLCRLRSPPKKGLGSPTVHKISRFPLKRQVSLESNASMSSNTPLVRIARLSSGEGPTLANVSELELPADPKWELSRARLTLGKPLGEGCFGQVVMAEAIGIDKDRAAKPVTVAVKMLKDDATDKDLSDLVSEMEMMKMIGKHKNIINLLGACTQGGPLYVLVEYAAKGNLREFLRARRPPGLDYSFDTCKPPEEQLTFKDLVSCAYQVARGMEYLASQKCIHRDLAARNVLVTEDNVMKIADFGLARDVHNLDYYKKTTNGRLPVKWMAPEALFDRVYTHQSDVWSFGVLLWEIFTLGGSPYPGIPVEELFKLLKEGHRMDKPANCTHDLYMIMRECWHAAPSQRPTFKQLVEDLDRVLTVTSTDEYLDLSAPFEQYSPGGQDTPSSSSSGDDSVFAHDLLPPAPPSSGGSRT
T2 sequence (P11362 22-822 limits assumed): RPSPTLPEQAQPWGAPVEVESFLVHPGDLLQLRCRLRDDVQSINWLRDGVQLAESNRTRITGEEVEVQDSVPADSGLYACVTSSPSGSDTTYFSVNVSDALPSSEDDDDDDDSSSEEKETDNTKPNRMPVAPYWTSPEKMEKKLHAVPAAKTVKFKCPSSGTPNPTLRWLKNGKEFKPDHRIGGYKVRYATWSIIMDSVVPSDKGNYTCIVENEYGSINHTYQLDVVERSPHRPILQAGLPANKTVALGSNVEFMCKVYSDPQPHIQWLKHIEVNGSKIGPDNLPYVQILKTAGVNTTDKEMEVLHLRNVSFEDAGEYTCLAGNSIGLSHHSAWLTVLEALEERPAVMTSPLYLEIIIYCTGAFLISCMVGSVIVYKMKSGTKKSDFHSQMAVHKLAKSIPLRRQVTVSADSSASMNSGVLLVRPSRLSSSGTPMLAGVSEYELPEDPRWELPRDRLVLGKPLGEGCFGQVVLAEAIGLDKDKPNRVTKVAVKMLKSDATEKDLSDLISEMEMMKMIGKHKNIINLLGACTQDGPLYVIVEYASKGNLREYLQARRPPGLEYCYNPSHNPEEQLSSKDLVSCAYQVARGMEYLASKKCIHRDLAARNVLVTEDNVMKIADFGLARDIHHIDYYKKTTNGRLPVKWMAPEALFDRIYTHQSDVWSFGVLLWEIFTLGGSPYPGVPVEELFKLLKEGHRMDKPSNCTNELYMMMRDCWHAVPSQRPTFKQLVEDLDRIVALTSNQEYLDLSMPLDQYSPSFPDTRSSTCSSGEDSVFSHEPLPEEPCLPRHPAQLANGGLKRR
Sequence of Fibroblast growth factor receptor 2 (Homo sapiens, UniProt P21802, V564F) (P21802 22-821 V564F limits assumed): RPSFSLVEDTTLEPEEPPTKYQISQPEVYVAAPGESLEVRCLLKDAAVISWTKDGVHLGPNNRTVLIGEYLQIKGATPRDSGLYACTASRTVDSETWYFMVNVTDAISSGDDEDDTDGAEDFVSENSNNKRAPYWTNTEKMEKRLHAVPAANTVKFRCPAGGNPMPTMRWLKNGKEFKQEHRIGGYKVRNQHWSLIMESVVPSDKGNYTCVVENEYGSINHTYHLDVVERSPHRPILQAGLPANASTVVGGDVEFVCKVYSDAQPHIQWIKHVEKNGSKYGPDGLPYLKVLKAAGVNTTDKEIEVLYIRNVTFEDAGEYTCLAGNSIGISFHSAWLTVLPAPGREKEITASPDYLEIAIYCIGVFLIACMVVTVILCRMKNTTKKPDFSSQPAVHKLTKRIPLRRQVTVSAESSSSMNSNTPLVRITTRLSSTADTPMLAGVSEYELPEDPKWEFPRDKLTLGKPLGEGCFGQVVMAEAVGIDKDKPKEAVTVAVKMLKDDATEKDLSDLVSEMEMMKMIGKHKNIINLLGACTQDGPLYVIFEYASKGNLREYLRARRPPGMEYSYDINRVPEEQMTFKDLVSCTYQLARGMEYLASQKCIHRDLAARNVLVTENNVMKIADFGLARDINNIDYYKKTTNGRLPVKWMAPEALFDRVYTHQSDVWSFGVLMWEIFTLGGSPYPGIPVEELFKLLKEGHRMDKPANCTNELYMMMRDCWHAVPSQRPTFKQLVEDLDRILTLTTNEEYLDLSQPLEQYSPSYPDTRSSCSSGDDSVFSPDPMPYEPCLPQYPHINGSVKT

C=CC(=O)N1CCCC(n2nc3c(=O)[nH]nc(N)c3c2-c2oc3ccc(C)cc3c2C)C1 (configuration not stated)
IC50 [1]: 13.6 nM
IC50 [2]: 52.6 nM
IC50 (SNU-16 [3]): 1.2 nM
remaining at 2 h [4]: > 40%
inhibition [5]: Active
inhibition [6]: Active
inhibition [7]: < 50%
IC50 [8]: > 5000 nM
IC50 [9]: 16 nM
IC50 [10]: 2860 nM
IC50 (NCI-H1581 [11]): 54.9 nM
IC50 (NCI-H716 [12]): 3.2 nM
IC50 (OPM-2): 300 nM
IC50 (NCI-H2228): > 10000 nM
IC50 (NCI-H1792): > 10000 nM
IC50 (NCI-H727): > 10000 nM
IC50 (NCI-H526): > 10000 nM
IC50 (PANC-1): > 10000 nM
IC50 (Hs746T): > 10000 nM
IC50 (BXPC-3): > 10000 nM
IC50 (HCC78): > 10000 nM
IC50 (EBC-1): > 10000 nM
IC50 (A549): > 10000 nM
IC50 (NCI-H441): > 10000 nM
IC50 (NCI-H1299): > 10000 nM
IC50 (BaF3): > 10000 nM
AUC(0-t) at 24 h [13]: 115 ng·h/mL
AUC(0-inf) [14]: 75.4 ng·h/mL
half-life [15]: 55.9 min
IC50 [16]: 6.1 nM
Activity (NCI-H1581 [17]): Dose-Dependent Effect
Activity (NCI-H1581 [18]): Active
Activity (NCI-H716 [19]): Active
Activity (SNU-16 [20]): 68.4%
Activity [21]: Non-Toxic
inhibition [22]: 80.9%
inhibition [23]: 37.6%
